{"source": "patent US20230248741A1", "about": "“Compositions and Methods for Lowering Triglycerides in a Subject with Reduced Kidney Function and Diabetes Mellitus” (Amarin Pharmaceuticals Ireland Limited, priority 2018, published 2023)", "key": {"[1]": {"experiment": "Essential fatty acids in plasma and RBC by gas chromatography, 6-week AAMI study", "type": "in vivo, human", "method": "Blood samples (10 mL) were collected at Visit 1 (screening) and at Visits 4, 5, and 6. Analysis was performed by MSR Lipid Analysis, Scottish Crop Research Institute, Dundee, UK. The screening sample acted as baseline for the EFA measurements. Lipid was extracted from plasma, serum, and RBC suspensions and converted into fatty acid methyl esters which were analyzed by gas chromatography to give fatty acid profiles as micrograms fatty acid per gram of sample (mFA/g) and normalized area percent.\nRBC and plasma EFA data were collected at baseline, Day 14, 28, and 42 and summarized by visit for each treatment group. Change from baseline and percent change from baseline were also summarized. ANCOVA comparison of E-EPA dose groups and E-EPA versus placebo was performed.\nNotable changes for these parameters occurred in the E-EPA treatment groups at Days 14, 28, and 42 compared to placebo."}, "[2]": {"system": "patients with eGFR <90 mL/min/1.73 m^2 for ≥3 months and hsCRP ≥2.0 mg/L", "experiment": "ANCHOR post-hoc (eGFR <90, hsCRP ≥2.0 mg/L): renal parameters", "type": "in vivo, human", "details": "4 g/day", "method": "CVD-related (e.g., atherogenic) parameters were analyzed in a post-hoc study of 152 patients from the multi-center, placebo-controlled, randomized double-blind, 12-week study described in Example 1. These 152 patients have reduced kidney reduced function (e.g., eGFR<90 mL/min/1.73 m^2 for ≥3 months) and hsCRP≥2.0 mg/L."}}}
{"molecule": "CC/C=C\\C/C=C\\C/C=C\\C/C=C\\C/C=C\\CCCC(=O)OCC", "note": "[E-EPA, ethyl eicosapentaenoate]", "values": [{"measurement": "DHA Plasma Mean change from Baseline", "setting": "[1]; 2 g daily, Day 28", "value": -8.1, "unit": "µg/g"}, {"measurement": "DHA RBC Mean change from Baseline", "setting": "[1]; 2 g daily, Day 28", "value": -6.2, "unit": "µg/g"}, {"measurement": "DPAn-3 Plasma Mean change from Baseline", "setting": "[1]; 2 g daily, Day 28", "value": 19.4, "unit": "µg/g"}, {"measurement": "DPAn-3 RBC Mean change from Baseline", "setting": "[1]; 2 g daily, Day 28", "value": 9.4, "unit": "µg/g"}, {"measurement": "AA Plasma Mean change from Baseline", "setting": "[1]; 2 g daily, Day 42", "value": -27.3, "unit": "µg/g"}, {"measurement": "AA RBC Mean change from Baseline", "setting": "[1]; 2 g daily, Day 42", "value": -18.8, "unit": "µg/g"}, {"measurement": "DGLA Plasma Mean change from Baseline", "setting": "[1]; 2 g daily, Day 42", "value": -17.3, "unit": "µg/g"}, {"measurement": "DGLA RBC Mean change from Baseline", "setting": "[1]; 2 g daily, Day 42", "value": -5.3, "unit": "µg/g"}, {"measurement": "DHA Plasma Mean change from Baseline", "setting": "[1]; 2 g daily, Day 42", "value": -6.0, "unit": "µg/g"}, {"measurement": "DHA RBC Mean change from Baseline", "setting": "[1]; 2 g daily, Day 42", "value": -6.3, "unit": "µg/g"}, {"measurement": "DPAn-3 Plasma Mean change from Baseline", "setting": "[1]; 2 g daily, Day 42", "value": 19.3, "unit": "µg/g"}, {"measurement": "DPAn-3 RBC Mean change from Baseline", "setting": "[1]; 2 g daily, Day 42", "value": 13.2, "unit": "µg/g"}, {"measurement": "AA Plasma Baseline Mean", "setting": "[1]; 2 g daily, baseline", "value": 227.3, "unit": "µg/g"}, {"measurement": "AA RBC Baseline Mean", "setting": "[1]; 2 g daily, baseline", "value": 172.8, "unit": "µg/g"}, {"measurement": "DGLA Plasma Baseline Mean", "setting": "[1]; 2 g daily, baseline", "value": 53.5, "unit": "µg/g"}, {"measurement": "DGLA RBC Baseline Mean", "setting": "[1]; 2 g daily, baseline", "value": 23.0, "unit": "µg/g"}, {"measurement": "DHA Plasma Baseline Mean", "setting": "[1]; 2 g daily, baseline", "value": 75.1, "unit": "µg/g"}, {"measurement": "DHA RBC Baseline Mean", "setting": "[1]; 2 g daily, baseline", "value": 64.8, "unit": "µg/g"}, {"measurement": "DPAn-3 Plasma Baseline Mean", "setting": "[1]; 2 g daily, baseline", "value": 19.7, "unit": "µg/g"}, {"measurement": "DPAn-3 RBC Baseline Mean", "setting": "[1]; 2 g daily, baseline", "value": 33.2, "unit": "µg/g"}, {"measurement": "AA Plasma LS Mean, 1 or 2 g versus 4 g", "setting": "[1]; 2 g versus 4 g", "value": 15.6, "unit": "µg/g"}, {"measurement": "AA RBC LS Mean, 1 or 2 g versus 4 g", "setting": "[1]; 2 g versus 4 g", "value": 9.8, "unit": "µg/g"}, {"measurement": "DGLA Plasma LS Mean, 1 or 2 g versus 4 g", "setting": "[1]; 2 g versus 4 g", "value": 2.5, "unit": "µg/g"}, {"measurement": "DGLA RBC LS Mean, 1 or 2 g versus 4 g", "setting": "[1]; 2 g versus 4 g", "value": 1.5, "unit": "µg/g"}, {"measurement": "DHA Plasma LS Mean, 1 or 2 g versus 4 g", "setting": "[1]; 2 g versus 4 g", "value": 1.5, "unit": "µg/g"}, {"measurement": "DHA RBC LS Mean, 1 or 2 g versus 4 g", "setting": "[1]; 2 g versus 4 g", "value": 1.0, "unit": "µg/g"}, {"measurement": "DPAn-3 Plasma LS Mean, 1 or 2 g versus 4 g", "setting": "[1]; 2 g versus 4 g", "value": -9.5, "unit": "µg/g"}, {"measurement": "DPAn-3 RBC LS Mean, 1 or 2 g versus 4 g", "setting": "[1]; 2 g versus 4 g", "value": -2.5, "unit": "µg/g"}, {"measurement": "AA Plasma Mean (SD) change from Baseline", "setting": "[1]; 4 g daily, Day 14", "value": "−27.2 (28.89) μg/g"}, {"measurement": "AA RBC Mean (SD) change from Baseline", "setting": "[1]; 4 g daily, Day 14", "value": "−15.7 (26.76) μg/g"}, {"measurement": "DGLA Plasma Mean change from Baseline", "setting": "[1]; 4 g daily, Day 14", "value": -22.9, "unit": "µg/g"}, {"measurement": "DGLA RBC Mean change from Baseline", "setting": "[1]; 4 g daily, Day 14", "value": -5.3, "unit": "µg/g"}, {"measurement": "DHA Plasma Mean change from Baseline", "setting": "[1]; 4 g daily, Day 14", "value": -10.3, "unit": "µg/g"}, {"measurement": "DHA RBC Mean change from Baseline", "setting": "[1]; 4 g daily, Day 14", "value": -6.9, "unit": "µg/g"}, {"measurement": "DPAn-3 Plasma Mean change from Baseline", "setting": "[1]; 4 g daily, Day 14", "value": 24.5, "unit": "µg/g"}, {"measurement": "DPAn-3 RBC Mean change from Baseline", "setting": "[1]; 4 g daily, Day 14", "value": 5.4, "unit": "µg/g"}, {"measurement": "AA Plasma Mean (SD) change from Baseline", "setting": "[1]; 4 g daily, Day 28", "value": "−43.7 (32.24) μg/g"}, {"measurement": "AA RBC Mean (SD) change from Baseline", "setting": "[1]; 4 g daily, Day 28", "value": "−22.8 (29.56) μg/g"}, {"measurement": "DGLA Plasma Mean change from Baseline", "setting": "[1]; 4 g daily, Day 28", "value": -24.2, "unit": "µg/g"}, {"measurement": "DGLA RBC Mean change from Baseline", "setting": "[1]; 4 g daily, Day 28", "value": -7.1, "unit": "µg/g"}, {"measurement": "DHA Plasma Mean change from Baseline", "setting": "[1]; 4 g daily, Day 28", "value": -13.5, "unit": "µg/g"}, {"measurement": "DHA RBC Mean change from Baseline", "setting": "[1]; 4 g daily, Day 28", "value": -8.7, "unit": "µg/g"}, {"measurement": "DPAn-3 Plasma Mean change from Baseline", "setting": "[1]; 4 g daily, Day 28", "value": 29.7, "unit": "µg/g"}, {"measurement": "DPAn-3 RBC Mean change from Baseline", "setting": "[1]; 4 g daily, Day 28", "value": 12.4, "unit": "µg/g"}, {"measurement": "AA Plasma Mean (SD) change from Baseline", "setting": "[1]; 4 g daily, Day 42", "value": "−48.3 (22.20) μg/g"}, {"measurement": "AA RBC Mean (SD) change from Baseline", "setting": "[1]; 4 g daily, Day 42", "value": "−34.4 (31.44) μg/g"}, {"measurement": "DGLA Plasma Mean change from Baseline", "setting": "[1]; 4 g daily, Day 42", "value": -22.5, "unit": "µg/g"}, {"measurement": "DGLA RBC Mean change from Baseline", "setting": "[1]; 4 g daily, Day 42", "value": -8.0, "unit": "µg/g"}, {"measurement": "DHA Plasma Mean change from Baseline", "setting": "[1]; 4 g daily, Day 42", "value": -13.8, "unit": "µg/g"}, {"measurement": "DHA RBC Mean change from Baseline", "setting": "[1]; 4 g daily, Day 42", "value": -13.8, "unit": "µg/g"}, {"measurement": "DPAn-3 Plasma Mean change from Baseline", "setting": "[1]; 4 g daily, Day 42", "value": 32.0, "unit": "µg/g"}, {"measurement": "DPAn-3 RBC Mean change from Baseline", "setting": "[1]; 4 g daily, Day 42", "value": 16.2, "unit": "µg/g"}, {"measurement": "AA Plasma Baseline Mean (SD)", "setting": "[1]; 4 g daily, baseline", "value": "220.9 (42.80) μg/g"}, {"measurement": "AA RBC Baseline Mean (SD)", "setting": "[1]; 4 g daily, baseline", "value": "171.0 (25.17) μg/g"}, {"measurement": "DGLA Plasma Baseline Mean", "setting": "[1]; 4 g daily, baseline", "value": 57.1, "unit": "µg/g"}, {"measurement": "DGLA RBC Baseline Mean", "setting": "[1]; 4 g daily, baseline", "value": 24.0, "unit": "µg/g"}, {"measurement": "DHA Plasma Baseline Mean", "setting": "[1]; 4 g daily, baseline", "value": 78.8, "unit": "µg/g"}, {"measurement": "DHA RBC Baseline Mean", "setting": "[1]; 4 g daily, baseline", "value": 68.3, "unit": "µg/g"}, {"measurement": "DPAn-3 Plasma Baseline Mean", "setting": "[1]; 4 g daily, baseline", "value": 21.7, "unit": "µg/g"}, {"measurement": "DPAn-3 RBC Baseline Mean", "setting": "[1]; 4 g daily, baseline", "value": 34.5, "unit": "µg/g"}, {"measurement": "serum creatinine after 12 weeks", "setting": "[2]; before 0.9 mg/dL, no change", "value": 0.9, "unit": "mg/dL"}, {"measurement": "albumin after 12 weeks", "setting": "[2]; before 4.5 g/dL, no statistically significant change", "value": 4.4, "unit": "g/dL"}, {"measurement": "eGFR after 12 weeks", "setting": "[2]; increase from 72.4", "value": 78.5, "unit": "mL/min/1.73 m^2"}]}
